The values that follow are results of earlier work, collected in patent US20140018438A1, “METHOD OF DESTROYING BACTERIAL BIOFILM USING STERILE INTRAVENOUS OR INTRACAVERNOUS GLYCERIN” (priority 2012, published 2014).

For the data set the following is noted: sterile product for intravenous administration, generally 3% concentration at 80-100 milliliters per hour.

As for `OCC(O)CO` [Glycerin], the “allergic reactions / safety profile” value is “free of allergic reactions”.
